The record followed here is patent US8598132B2, “Glycosylated indolocarbazoles, method for obtaining same and uses thereof” (Universidad de Oviedo, priority 2008, dated 2013).

The test system of one assay is MDA-MB-231 (breast). The assay can be described thus: SRB anti-tumour (growth inhibition) assay, MDA-MB-231. The assay is classed as cell-based. As to conditions: Homo sapiens, 48 h exposure, read-out: GI50 (concentration inhibiting 50% of cell growth). How it is done: (§1) The compounds generated were tested against a series of cell lines from tumours. It quantitatively determined the cell growth and the viability, using a colorimetric assay type, using the reaction with sulforhodamine B (SRB), according to the technique described by Faircloth et al. (Journal of Tissue and Culture Methods 1988, 11, 201-205).
(§2) 96-well microtitre plates are inoculated with cells (5×10^3 cells per well) in aliquots of 195 μl of medium, incubating them during 18 h, in a medium without added compound, to allow the cells to adhere to the surface. Next, the compounds to be tested are added, in samples of 5 μl, at a range of concentrations of 10 to 10^−8 μg/ml, dissolved in DMSO/EtOH (0.2% in PS buffer). After 48 h exposure, the anti-tumour effect is measured using the Sulforhodamine B (SRB) technique: the cells are fixed adding 50 μl of cold […] (50%) (w/v) and it is incubated for 60 min. at 4° C. The plates are washed with deionized water and dried. 100 μl of SRB solution (0.4% w/v in 1% acetic acid) to each well and it is incubated during 10 min. at ambient temperature. The non-bound SRB is eliminated, washing with 1% acetic acid. The plates are air dried and the bound colorant is dissolved with Tris buffer. The optical densities are read in an automatic plate spectrophotometer reader at a wavelength of 490 nm.
(§3) For the compounds of formula (III), (IV), (V), (VI), (VII), (VIII), (IX) and the compounds of formula (XII), (XIII), (XIV), (XV), (XVI) and (XVIII).

The target in a further assay is T1, KDR (Homo sapiens, UniProt P35968).
T1 construct: purchased Carna Biosciences
T1 sequence (P35968 20-1356): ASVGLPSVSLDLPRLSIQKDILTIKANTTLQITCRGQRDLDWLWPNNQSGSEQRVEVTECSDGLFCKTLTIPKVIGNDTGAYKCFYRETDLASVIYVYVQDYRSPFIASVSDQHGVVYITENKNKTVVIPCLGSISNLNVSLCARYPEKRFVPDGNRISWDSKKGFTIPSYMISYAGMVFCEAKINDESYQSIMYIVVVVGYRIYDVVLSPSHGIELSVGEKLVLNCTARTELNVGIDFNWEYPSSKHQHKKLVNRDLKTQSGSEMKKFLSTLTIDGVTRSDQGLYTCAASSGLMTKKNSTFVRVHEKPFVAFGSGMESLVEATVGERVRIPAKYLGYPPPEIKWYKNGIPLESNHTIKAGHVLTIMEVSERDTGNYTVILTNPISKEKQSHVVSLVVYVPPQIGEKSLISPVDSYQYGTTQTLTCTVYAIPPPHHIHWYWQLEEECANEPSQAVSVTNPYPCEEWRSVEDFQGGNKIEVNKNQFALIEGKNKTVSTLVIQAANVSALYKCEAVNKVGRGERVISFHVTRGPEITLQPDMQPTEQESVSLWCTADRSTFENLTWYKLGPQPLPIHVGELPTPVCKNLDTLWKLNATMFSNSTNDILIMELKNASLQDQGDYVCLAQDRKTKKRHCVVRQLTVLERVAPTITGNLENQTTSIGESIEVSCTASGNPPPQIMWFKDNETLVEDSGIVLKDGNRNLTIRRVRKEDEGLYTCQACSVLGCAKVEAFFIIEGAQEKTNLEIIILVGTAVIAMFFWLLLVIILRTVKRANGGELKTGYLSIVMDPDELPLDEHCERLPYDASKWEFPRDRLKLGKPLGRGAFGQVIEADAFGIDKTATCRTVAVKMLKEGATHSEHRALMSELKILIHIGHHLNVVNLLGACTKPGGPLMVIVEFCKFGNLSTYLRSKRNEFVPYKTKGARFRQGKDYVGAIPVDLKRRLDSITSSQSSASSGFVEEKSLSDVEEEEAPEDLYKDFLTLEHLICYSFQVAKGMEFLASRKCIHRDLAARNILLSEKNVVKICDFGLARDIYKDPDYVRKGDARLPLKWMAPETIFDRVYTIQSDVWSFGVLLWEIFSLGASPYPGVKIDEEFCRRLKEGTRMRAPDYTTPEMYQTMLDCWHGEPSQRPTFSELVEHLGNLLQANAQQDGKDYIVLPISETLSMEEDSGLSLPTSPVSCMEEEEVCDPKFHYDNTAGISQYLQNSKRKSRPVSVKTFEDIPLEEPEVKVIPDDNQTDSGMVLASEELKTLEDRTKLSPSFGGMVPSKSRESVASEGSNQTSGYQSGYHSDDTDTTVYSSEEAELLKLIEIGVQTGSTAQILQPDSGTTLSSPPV
The assay can be described thus: LabChip (Caliper) kinase assay, KDR. The assay is classed as biochemical. As for the experimental part: (§4) The analysis of kinase activity described here was performed using LabChip (Caliper Life Sciences), specifically the Caliper LC3000 and the EZ Reader II instruments.
(§5) The kinase assay used measures the conversion of a fluorescent peptide (substrate) to a phosphorylated product. The reaction mixture, in a microplate well, is introduced by a capillary in a chip where the non-phosphorylated substrate and the phosphorylated product are separated by […]. The intensity of the fluorescent signal over time is related to the reaction progress. The phosphorylated product migrates quicker than the non-phosphorylated substrate and the signals of the two forms of the peptide appear as differentiated peaks. The Caliper determines the peak height and calculates the ratio of product to the peak sum (P/(P+S)). This value is used to compare wells with compounds and wells with controls and thus determine the % of inhibition for the given product.
(§6) The followings kinases were used for the enzymatic inhibition studies, between brackets the value of the Michaelis-Menten constant, Km, of the ATP (Adenosine triphosphate) for each kinase, in μM: obtained from Carna Biosciences: MAPKAPK2 (4.6), AurA (3.6), AurB (5), PKCζ (3.8), RSK1 (23.3), PRAK (5), Erk1 (33.4), PKD2 (32.1), CK1d (16.3), CHK1 (33), ABL (61.7), FYN (36), LYNa (17), CHK2 (57.8), MET (79.5), LCK (28.5), SRC (38), GSK3β (7.3), Erk2 (62.1), PKACα (1.7), AKT2 (186.1), INSR (871.8), p38a (396.5), AKT1(48), MSK1 (21.2), PKCβ2 (84.8), ROCK2 (3.3), PIM2 (4.9), AMPK (38.6), KDR (164.8), IRAK4 (196.5), SGK1 (121.8), SYK (33.5); obtained from Invitrogen: CDK2 (57.6), BTK (123), HGK (80); obtained from Upstate: MST2 (36.6), PKGα (16), PAK2 (1.9), IGF1R (320), FGFR1 (171), MARK1 (33), CAMK2δ (22.4), c-TAK1 (66), DYRK1a (18.1), CaMK4 (3.9), FLT3 (350), c-Raf (6.2), P70S6K (95).
(§7) The compounds were dissolved in 100% DMSO and were diluted at 25 times the final concentration desired for the assay. In the case of the determination of Cl50, serial dilutions were made to reach eight concentrations and give rise to the inhibition curve. 1 μL of each concentration is transferred, in duplicate to a 384-well microplate. 12 μL of enzymatic buffer is added to each well containing purified kinase (several suppliers as indicated above), 100 mM HEPES, pH 7.5, 1 mM DTT (Calbiochem), 0.002% Brij-35 (Sigma) and also in presence of 10 mM MgCl2 as cofactor, except for INSR and IRAK4 wherein 10 mM MnCl2 is used instead of MgCl2. For the kinases CAMK26 and CAMK4, 1 mM CaCl2 and 6.7 μg/mL of calmodulin are also added. For KDR kinase, 0.05% of the CHAPSO detergent is added. For the c-Raf kinase, 10 mM MnCl2 is added. For PKCβ2 0.02 μg/mL of PS/PMA is added. For PKGα se 10 μM of cGMP (cyclic guanosine monophosphate) is added. The compound and the enzyme are left for 15 minutes preincubation and, then, the following are added to each well: 12 μL of peptide buffer/ATP containing 100 mM HEPES, pH 7.5, 1.5 μM peptide marker with fluorescein (specific for the corresponding kinase), ATP (at concentration KM), and 0.002% Brij-35 to start the reaction. Generally, the reactions are incubated for 1-1.5 h at ambient temperature to obtain an adequate conversion (15-40%) of the peptide to the phosphorylated product. The reactions were ended by the addition of 45 μL of buffer containing 0 mM EDTA. The microplates were read by the LabChip 3000 using a 12-channel LabChip. The P/(P+S) values were obtained as described above and the CI50 curves were generated using XIfit.
(§8) Table 9a has the 0150 data obtained in pairs of compound-kinase selected from the compounds of formula (VII), (VIII), (IX), (XVI), (XVII) and (XVIII) after taking inhibition measurements at 100 nM and 10 nM. Those couples that provide >70% of inhibition at 10 nM were consider for measuring its IC50. […]

Another assay deals with T2, FGFR1 (Homo sapiens, UniProt P11362).
T2 construct: purchased Upstate
T2 sequence (P11362 22-822, species assumed): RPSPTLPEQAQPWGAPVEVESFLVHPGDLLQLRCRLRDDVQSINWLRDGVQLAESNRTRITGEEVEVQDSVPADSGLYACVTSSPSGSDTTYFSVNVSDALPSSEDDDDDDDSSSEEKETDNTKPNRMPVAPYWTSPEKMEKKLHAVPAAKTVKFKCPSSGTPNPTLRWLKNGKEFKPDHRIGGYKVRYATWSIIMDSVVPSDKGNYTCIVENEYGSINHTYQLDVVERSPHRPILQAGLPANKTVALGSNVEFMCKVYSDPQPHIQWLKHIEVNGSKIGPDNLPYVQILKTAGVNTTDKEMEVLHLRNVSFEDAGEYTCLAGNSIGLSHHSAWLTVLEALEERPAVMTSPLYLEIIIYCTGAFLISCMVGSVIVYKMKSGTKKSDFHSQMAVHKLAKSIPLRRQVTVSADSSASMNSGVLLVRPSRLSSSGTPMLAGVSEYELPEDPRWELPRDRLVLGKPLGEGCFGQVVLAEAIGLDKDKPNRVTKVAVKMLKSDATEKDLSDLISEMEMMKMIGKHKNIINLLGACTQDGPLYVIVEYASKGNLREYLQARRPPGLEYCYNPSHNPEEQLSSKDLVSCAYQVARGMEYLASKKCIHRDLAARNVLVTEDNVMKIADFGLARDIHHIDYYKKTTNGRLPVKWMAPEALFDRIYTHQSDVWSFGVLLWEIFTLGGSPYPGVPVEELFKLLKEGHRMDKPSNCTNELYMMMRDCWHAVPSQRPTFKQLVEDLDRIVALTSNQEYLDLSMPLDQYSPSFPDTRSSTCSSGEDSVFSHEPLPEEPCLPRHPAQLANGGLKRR
The assay can be described thus: LabChip (Caliper) kinase assay, FGFR1. The assay is classed as biochemical. How it is done: as §4, §5, §6, §7, §8

The next assay concerns HT29 (colon). The assay can be described thus: SRB anti-tumour (growth inhibition) assay, HT29. The assay is classed as cell-based. The note with it: Homo sapiens, HT-29, 48 h exposure, read-out: GI50 (concentration inhibiting 50% of cell growth). As for the experimental part: as §1, §2, §3
Another assay concerns A549 (lung). Briefly: SRB anti-tumour (growth inhibition) assay, A549. The assay is classed as cell-based. As to conditions: Homo sapiens, 48 h exposure, read-out: GI50 (concentration inhibiting 50% of cell growth). As for the experimental part: as §1, §2, §3
Where [1] appears, read: compound at 10 nM, read-out: remaining kinase activity (in %) / percentage of inhibition.
Setting [2] is: compound at 100 nM, read-out: remaining kinase activity (in %) / percentage of inhibition.
[3] abbreviates: ATP at Km, read-out: CI50 (the source's name).

Turning to `C[C@H]1O[C@@H](n2c3ccccc3c3c4c(c5c6ccccc6[nH]c5c32)CNC4=O)C[C@@H](O)[C@@H]1O` [formula (XV), N^13-1′-β-D-olivosyl-k252c], the results for the GI50 in the assay with MDA-MB-231 (breast), in the assay on HT29 (colon) and in the assay on A549 (lung) were 3.17 µM, 3.85 µM and 4.98 µM, respectively. Moreover, the inhibition at 0.01 µM at KDR (setting [1]) was -4%; at FGFR1 (setting [1]) it was -2%. Moreover, the figures for the inhibition at 0.1 µM on KDR (setting [2]) and on FGFR1 (setting [2]) were 18% and 7%, respectively.
In the case of `C[C@]12O[C@H](C[C@@H](O)[C@H]1O)n1c3ccccc3c3c4c(c5c6ccccc6n2c5c31)CNC4=O` [formula (XVIII), N^12-5′(S)-N^13-1′-(R)-L-digitoxosyl-k252c], the results for the GI50 in the assay with MDA-MB-231 (breast), in the assay on HT29 (colon) and in the assay with A549 (lung) were 1.84 µM, 1.52 µM and 1.96 µM, respectively. In addition, the IC50 at KDR (setting [3]) was above 0.01 µM; on FGFR1 (setting [3]), above 0.1 µM.
